The nature of data set [1]: Solubility of the compound at pH 7. In kind it is physicochemical. The note with it: buffer, read-out: solubility.
Data set [2] has as its target Voltage-gated inwardly rectifying potassium channel KCNH2 (Homo sapiens, UniProt Q12809). Description: Displacement of [35S]-MK-499 from hERG expressed in HEK293 cells […]. In kind it is toxicity, cell-based.
The nature of data set [3]: Apparent permeability in […] LLC-MDR1 cell. In kind it is ADME, cell-based. The note with it: LLC-PK1.
In data set [4] the target is T1, Nuclear receptor subfamily 1 group I member 2 (Homo sapiens, UniProt O75469).
T1 sequence (O75469 whole entry): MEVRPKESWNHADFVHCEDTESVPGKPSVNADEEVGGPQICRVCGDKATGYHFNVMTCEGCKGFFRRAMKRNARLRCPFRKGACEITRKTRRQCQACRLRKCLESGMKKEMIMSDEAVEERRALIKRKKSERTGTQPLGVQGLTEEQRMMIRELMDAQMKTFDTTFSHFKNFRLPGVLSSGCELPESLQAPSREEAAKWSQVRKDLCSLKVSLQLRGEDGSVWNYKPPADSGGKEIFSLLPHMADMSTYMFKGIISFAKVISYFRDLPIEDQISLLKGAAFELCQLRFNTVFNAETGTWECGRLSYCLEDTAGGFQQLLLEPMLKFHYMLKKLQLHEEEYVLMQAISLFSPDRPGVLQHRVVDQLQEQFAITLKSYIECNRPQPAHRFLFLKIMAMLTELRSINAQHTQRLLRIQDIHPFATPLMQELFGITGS
Put plainly: Agonist activity at PXR (unknown origin).

Data set [5] deals with T2, PXR (NR1I2) (Homo sapiens, UniProt O75469).
T2 sequence (O75469 whole entry): T1 sequence (O75469 whole entry)
Put plainly: Agonist activity at PXR (unknown origin) assessed as maximal efficacy at 30 uM.

Data set [6] deals with Metabotropic glutamate receptor 2 (Homo sapiens, UniProt Q14416). Description: Negative allosteric modulation at human mGluR2 receptor stably expressed in DHFR null CHO cells co-expressing Galpha16 assessed as effect on intracellular calcium flux measured after 5 min by Fluo-4AM dye based FLIPR analysis. In kind it is functional, cell-based.
For data set [7], the target named is P-gp (ABCB1) (Rattus norvegicus, UniProt P43245). Description: Substrate activity at rat P-gp […] in […] LLC-MDR1 cells assessed as efflux ratio of apparent permeability across basolateral to apical over apical to basolateral side. In kind it is ADME, cell-based, LLC-MDR1 cell. The note with it: LLC-PK1.

pEC50, pIC50: −log10 of the molar value. Converted amounts (≈) assume the structure as drawn. Where only a bound is given, the exact number is not on record here.

Here are results for 18 molecules from ChEMBL document CHEMBL5360658, “Discovery of MK-8768, a Potent and Selective mGluR2 Negative Allosteric Modulator” (ACS Med Chem Lett, 2023).

Chain of Metabotropic glutamate receptor 2 (Q14416 whole entry): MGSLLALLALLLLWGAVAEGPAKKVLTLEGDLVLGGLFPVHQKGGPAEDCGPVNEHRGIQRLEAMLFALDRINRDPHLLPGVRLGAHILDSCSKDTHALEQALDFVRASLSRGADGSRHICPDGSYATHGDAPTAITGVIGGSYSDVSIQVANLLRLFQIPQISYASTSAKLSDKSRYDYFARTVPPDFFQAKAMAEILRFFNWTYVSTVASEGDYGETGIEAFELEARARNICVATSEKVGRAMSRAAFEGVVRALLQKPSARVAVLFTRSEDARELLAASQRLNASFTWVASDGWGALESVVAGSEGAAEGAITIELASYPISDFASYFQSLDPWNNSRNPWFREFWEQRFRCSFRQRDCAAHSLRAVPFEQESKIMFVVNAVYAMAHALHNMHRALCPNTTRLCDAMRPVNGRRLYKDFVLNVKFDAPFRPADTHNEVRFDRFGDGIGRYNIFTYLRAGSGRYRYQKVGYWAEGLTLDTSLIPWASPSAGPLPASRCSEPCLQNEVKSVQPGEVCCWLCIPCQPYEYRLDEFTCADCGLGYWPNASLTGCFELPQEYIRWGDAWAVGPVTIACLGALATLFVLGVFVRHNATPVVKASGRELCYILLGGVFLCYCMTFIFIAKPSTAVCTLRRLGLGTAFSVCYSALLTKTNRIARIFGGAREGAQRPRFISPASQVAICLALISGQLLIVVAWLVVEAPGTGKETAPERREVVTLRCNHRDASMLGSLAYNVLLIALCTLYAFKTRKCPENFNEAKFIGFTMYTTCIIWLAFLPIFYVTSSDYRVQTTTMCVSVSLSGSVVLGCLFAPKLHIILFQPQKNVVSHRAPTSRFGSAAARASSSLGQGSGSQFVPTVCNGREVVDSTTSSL
Chain of Voltage-gated inwardly rectifying potassium channel KCNH2 (Q12809 whole entry): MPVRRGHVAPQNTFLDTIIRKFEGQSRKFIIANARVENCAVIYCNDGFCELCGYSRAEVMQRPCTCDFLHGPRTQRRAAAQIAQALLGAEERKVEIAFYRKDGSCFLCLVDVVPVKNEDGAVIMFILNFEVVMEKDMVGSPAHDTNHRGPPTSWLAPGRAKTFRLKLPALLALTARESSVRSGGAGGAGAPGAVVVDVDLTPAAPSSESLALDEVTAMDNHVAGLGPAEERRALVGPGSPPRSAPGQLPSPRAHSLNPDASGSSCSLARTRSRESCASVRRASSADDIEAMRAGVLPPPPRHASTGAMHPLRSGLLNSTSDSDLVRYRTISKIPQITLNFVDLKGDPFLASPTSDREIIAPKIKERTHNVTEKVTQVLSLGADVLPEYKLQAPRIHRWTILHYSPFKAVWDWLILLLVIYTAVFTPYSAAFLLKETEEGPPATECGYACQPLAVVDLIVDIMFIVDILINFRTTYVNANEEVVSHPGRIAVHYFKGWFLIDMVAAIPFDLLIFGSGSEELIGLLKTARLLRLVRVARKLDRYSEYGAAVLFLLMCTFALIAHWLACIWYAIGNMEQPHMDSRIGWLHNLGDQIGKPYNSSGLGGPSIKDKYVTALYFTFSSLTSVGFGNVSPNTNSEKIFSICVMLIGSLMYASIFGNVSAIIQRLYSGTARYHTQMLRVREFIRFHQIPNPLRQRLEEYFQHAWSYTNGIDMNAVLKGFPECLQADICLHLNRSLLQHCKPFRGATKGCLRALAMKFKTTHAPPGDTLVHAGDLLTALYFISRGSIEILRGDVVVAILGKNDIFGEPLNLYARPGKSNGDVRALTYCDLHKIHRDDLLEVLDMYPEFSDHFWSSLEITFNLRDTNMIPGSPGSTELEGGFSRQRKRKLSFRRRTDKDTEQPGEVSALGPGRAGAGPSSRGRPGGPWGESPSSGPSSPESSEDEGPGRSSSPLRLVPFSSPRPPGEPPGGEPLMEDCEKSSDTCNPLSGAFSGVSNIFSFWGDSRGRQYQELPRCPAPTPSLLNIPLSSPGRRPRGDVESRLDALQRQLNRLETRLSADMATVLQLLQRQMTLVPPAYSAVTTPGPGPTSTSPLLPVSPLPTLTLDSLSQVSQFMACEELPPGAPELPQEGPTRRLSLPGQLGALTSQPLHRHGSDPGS
Chain of P-gp (ABCB1) (P43245 whole entry): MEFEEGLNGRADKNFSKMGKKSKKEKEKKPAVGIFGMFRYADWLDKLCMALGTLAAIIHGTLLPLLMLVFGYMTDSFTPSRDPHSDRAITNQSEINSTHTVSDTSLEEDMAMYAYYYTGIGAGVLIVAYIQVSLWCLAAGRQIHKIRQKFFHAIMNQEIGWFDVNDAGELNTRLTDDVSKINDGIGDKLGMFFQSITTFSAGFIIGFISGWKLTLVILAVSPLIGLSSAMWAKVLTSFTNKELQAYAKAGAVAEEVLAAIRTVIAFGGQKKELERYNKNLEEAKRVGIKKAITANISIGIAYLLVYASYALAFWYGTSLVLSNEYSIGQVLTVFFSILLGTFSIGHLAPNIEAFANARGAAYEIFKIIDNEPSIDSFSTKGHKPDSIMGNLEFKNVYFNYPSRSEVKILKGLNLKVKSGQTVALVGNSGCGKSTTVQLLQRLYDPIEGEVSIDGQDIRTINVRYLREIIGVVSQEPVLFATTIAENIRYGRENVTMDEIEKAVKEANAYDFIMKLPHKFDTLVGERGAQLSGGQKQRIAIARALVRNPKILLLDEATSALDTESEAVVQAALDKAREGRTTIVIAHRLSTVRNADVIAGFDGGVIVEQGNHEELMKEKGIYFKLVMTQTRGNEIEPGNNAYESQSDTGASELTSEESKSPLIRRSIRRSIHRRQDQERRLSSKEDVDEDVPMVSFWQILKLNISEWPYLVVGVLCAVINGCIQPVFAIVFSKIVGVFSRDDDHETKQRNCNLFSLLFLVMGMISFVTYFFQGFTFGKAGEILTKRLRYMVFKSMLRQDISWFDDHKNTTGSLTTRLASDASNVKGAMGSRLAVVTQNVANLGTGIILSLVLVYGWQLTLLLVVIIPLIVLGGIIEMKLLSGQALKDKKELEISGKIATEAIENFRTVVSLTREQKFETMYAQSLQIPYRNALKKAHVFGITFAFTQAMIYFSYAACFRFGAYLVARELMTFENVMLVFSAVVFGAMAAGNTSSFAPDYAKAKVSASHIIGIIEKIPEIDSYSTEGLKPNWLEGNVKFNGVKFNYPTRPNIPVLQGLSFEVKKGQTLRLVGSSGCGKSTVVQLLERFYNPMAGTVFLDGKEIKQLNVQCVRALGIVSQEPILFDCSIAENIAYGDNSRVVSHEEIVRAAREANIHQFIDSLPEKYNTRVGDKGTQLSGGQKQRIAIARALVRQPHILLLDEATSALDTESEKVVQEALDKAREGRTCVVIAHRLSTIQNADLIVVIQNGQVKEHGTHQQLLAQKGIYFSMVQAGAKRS

As a reminder, the solubility is the concentration that dissolves in the medium under given conditions. What is called pIC50 is the negative decadic logarithm of the IC50, by convention in mol/L. By Papp is commonly meant a coefficient for how fast a substance crosses the barrier. Regarding `Cn1cc(Cc2ccc3c(-c4cnn(C)c4)cc(C(N)=O)nc3c2)cn1`, the solubility in data set [1] is 105 µM (≈ 36.4 µg/mL). Also, the pIC50 in data set [2] was < 4.22. Further, the Papp in data set [3] is 36 ×10⁻⁶ cm/s.

Broadly, the pEC50 is −log10 of the EC50, conventionally taken in molar units. Low values mean a high EC50, high ones a low EC50. In general, Emax refers to the size of the effect at its maximum, as opposed to the concentration needed. Take `NC(=O)c1cc(-c2ccc(F)cc2)c2ccc(CNCC(F)(F)F)cc2n1`: the solubility in data set [1] is 6 µM (≈ 2.26 µg/mL). The pEC50 in data set [4] is < 4.52. In addition, the Emax at 30 µM in data set [5] amounted to 50%. Besides, in data set [2], the pIC50 was 4.99. For the same molecule, in data set [3], the Papp stood at 24 ×10⁻⁶ cm/s.

As a reminder, the efflux ratio is a quotient of directional permeabilities that is used to spot active efflux. For the molecule `Cc1ccn(-c2cc(C(N)=O)nc3cc(CN4C(=O)CCC4=O)ccc23)n1`, the solubility in data set [1] turned out to be 46 µM (≈ 16.7 µg/mL). Besides, the pIC50 is < 5.30 in data set [6] and < 4.22 in data set [2]. In addition, the efflux ratio in data set [7] was 18. In addition, the apparent permeability (Papp) in data set [3] was found to be 30 ×10⁻⁶ cm/s.

On to `Cc1cnn(Cc2ccc3c(-c4ccc(F)cc4)cc(C(N)=O)nc3c2)c1`, for which the solubility in data set [1] was < 2 µM. Besides, in data set [4], the pEC50 is 4.78. Also, the maximum response (Emax) at 30 µM in data set [5] is 53%. Also, in data set [2], the pIC50 is 5.72. Besides, in data set [3], the Papp was found to be 27 ×10⁻⁶ cm/s.

For `CC1CCN(c2cc(C(N)=O)nc3cc(CN4C(=O)CCC4=O)ccc23)CC1`, in data set [1], the solubility is < 2 µM.

Turning to `NC(=O)c1cc(-c2ccc(F)cc2)c2ccc(CN3CCOC(C(F)(F)F)C3)cc2n1` (racemic), the solubility in data set [1] is 2 µM (≈ 0.867 µg/mL). In addition, in data set [2], the pIC50 was 5.26. Moreover, the Papp in data set [3] came out at 24 ×10⁻⁶ cm/s.

Take `NC(=O)c1cc(-c2ccc(F)cc2)c2ccc(CN3CCNC(C(F)(F)F)C3)cc2n1` (racemic): the solubility in data set [1] was determined as 105 µM (≈ 45.4 µg/mL). Moreover, the pIC50 in data set [2] is 4.95. Further, in data set [3], the Papp came to 27 ×10⁻⁶ cm/s.

With `CC1CC=C(c2cc(C(N)=O)nc3cc(CN4C(=O)CCC4=O)ccc23)CC1` (racemic), the solubility in data set [1] is < 1 µM. Also, the pEC50 in data set [4] is 6.22. Moreover, in data set [5], the Emax at 30 µM was 115%. The pIC50 in data set [2] was 4.57. For the same molecule, the Papp in data set [3] amounted to 33 ×10⁻⁶ cm/s.

With `CC1CN(Cc2ccc3c(-c4cnn(C)c4)cc(C(N)=O)nc3c2)CCO1` (racemic), the solubility in data set [1] was 175 µM (≈ 64 µg/mL). Moreover, in data set [4], the pEC50 was < 4.52. Also, in data set [5], the Emax at 30 µM is 1%. Moreover, the pIC50 in data set [2] was < 4.22.

For `CC(C)C1CN(Cc2ccc3c(-c4cnn(C)c4)cc(C(N)=O)nc3c2)CCO1` (racemic), the solubility in data set [1] is 142 µM (≈ 55.9 µg/mL). The molecule also gave a pEC50 in data set [4] of 4.54. Moreover, the pIC50 in data set [6] was 7.64; in data set [2], 4.64. The Emax at 30 µM in data set [5] is 51%. Moreover, the efflux ratio in data set [7] was determined as 1.3. In addition, the Papp in data set [3] worked out at 34 ×10⁻⁶ cm/s.

Turning to `COC1CC=C(c2cc(C(N)=O)nc3cc(CN4C(=O)CCC4=O)ccc23)CC1` (racemic), in data set [1], the solubility stood at 125 µM (≈ 49.2 µg/mL). Further, the pIC50 in data set [2] is < 4.22. The Papp in data set [3] is 32 ×10⁻⁶ cm/s.

For the molecule `Cn1cc(-c2cc(C(N)=O)nc3cc(CN4CCOC(C(F)F)C4)ccc23)cn1` (racemic), the solubility in data set [1] was 193 µM (≈ 77.5 µg/mL). In addition, the pIC50 in data set [6] is 7.17.

As to `NC(=O)c1cc(-c2ccc(F)cc2)c2ccc(C(N3CCOCC3)C(F)(F)F)cc2n1` (racemic), the solubility in data set [1] is < 2 µM. The pIC50 in data set [6] was 7.39; in data set [2] it was 4.95. Moreover, the Papp in data set [3] was determined as 28 ×10⁻⁶ cm/s.

Consider `CC1CN(Cc2ccc3c(-c4ccc(F)cc4)cc(C(N)=O)nc3c2)CCO1` (racemic), for which, in data set [1], the solubility worked out at 103 µM (≈ 39.1 µg/mL). Besides, the pEC50 in data set [4] is < 4.52. Also, the maximum response (Emax) at 30 µM in data set [5] was determined as 26%. Also, the pIC50 in data set [2] is 5.26.

For the molecule `Cn1cc(-c2cc(C(N)=O)nc3cc(CN4CCOC(C5CC5)C4)ccc23)cn1` (racemic), in data set [1], the solubility was found to be 175 µM (≈ 68.5 µg/mL). In addition, the figures for the pIC50 in data set [6] and in data set [2] were 7.49 and 4.29, respectively. Also, the Papp in data set [3] was 29 ×10⁻⁶ cm/s.

As for `Cn1cc(-c2cc(C(N)=O)nc3cc(CN4CCOC(C(F)(F)F)C4)ccc23)cn1` (racemic), the solubility in data set [1] was 132 µM (≈ 55.4 µg/mL). Besides, the pIC50 in data set [2] is 4.72. Further, the Papp in data set [3] was found to be 30 ×10⁻⁶ cm/s.

For the molecule `CC(c1ccc2c(-c3cnn(C)c3)cc(C(N)=O)nc2c1)c1cnn(CC(F)(F)F)c1` (racemic), the solubility in data set [1] was determined as 107 µM (≈ 45.8 µg/mL). For the same molecule, the pEC50 in data set [4] was 4.72. Moreover, the figures for the pIC50 in data set [6] and in data set [2] were 7.96 and 5.00, respectively. For the same molecule, in data set [5], the Emax at 30 µM came out at 75%. Further, the efflux ratio in data set [7] was 18. Also, the Papp in data set [3] is 29 ×10⁻⁶ cm/s.

For `Cn1cc(-c2cc(C(N)=O)nc3cc(CN4CCNC(C(F)(F)F)C4)ccc23)cn1` (racemic), the solubility in data set [1] was determined as 175 µM (≈ 73.2 µg/mL). In addition, the pIC50 is 6.91 in data set [6] and < 4.70 in data set [2]. Moreover, in data set [3], the Papp was determined as 29 ×10⁻⁶ cm/s.
